The target of this assay is Lethal factor protease (Bacillus anthracis, UniProt P15917). The assay can be described thus: biochemical. The settings on record: LF (FRET) Ki^app.
Chain of Lethal factor protease (P15917 34-809 limits assumed): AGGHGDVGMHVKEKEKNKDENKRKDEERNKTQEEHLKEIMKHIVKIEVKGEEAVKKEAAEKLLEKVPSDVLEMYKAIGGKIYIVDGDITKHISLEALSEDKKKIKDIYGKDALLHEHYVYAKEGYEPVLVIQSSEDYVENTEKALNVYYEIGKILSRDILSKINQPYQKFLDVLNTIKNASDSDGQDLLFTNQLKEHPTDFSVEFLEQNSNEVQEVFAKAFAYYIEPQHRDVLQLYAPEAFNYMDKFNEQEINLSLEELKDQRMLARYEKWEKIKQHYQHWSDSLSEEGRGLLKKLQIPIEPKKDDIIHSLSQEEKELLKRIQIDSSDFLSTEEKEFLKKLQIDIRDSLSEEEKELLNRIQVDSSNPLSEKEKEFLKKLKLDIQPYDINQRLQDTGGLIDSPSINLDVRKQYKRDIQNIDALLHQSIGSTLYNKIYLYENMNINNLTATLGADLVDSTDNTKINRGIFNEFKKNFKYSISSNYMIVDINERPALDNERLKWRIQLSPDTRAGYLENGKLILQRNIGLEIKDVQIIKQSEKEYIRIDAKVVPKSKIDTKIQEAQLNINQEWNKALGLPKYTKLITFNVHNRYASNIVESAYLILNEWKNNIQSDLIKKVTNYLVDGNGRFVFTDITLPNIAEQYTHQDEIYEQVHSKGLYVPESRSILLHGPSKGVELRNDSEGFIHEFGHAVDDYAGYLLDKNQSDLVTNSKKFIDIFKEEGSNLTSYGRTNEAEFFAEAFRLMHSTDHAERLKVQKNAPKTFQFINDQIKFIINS
In the case of `CO[C@H](C[C@H](CCCCNCc1ccc(C)o1)C(=O)NO)c1ccc(F)cc1` [Compound 168228, (S)-2-((R)-2-(4-fluorophenyl)-2-methoxyethyl)-N-hydroxy-6-((5-methylfuran-2-yl)methylamino)hexanamide], the Ki turned out to be 2800 nM.
In turn, `CO[C@H](C[C@H](CCCCNc1ccc(F)cc1)C(=O)NO)c1ccc(F)cc1` [Compound 168229] yielded a Ki of 2800 nM.
As to `CO[C@H](C[C@H](CCCCNCc1cccc(-c2ccc(F)cc2)c1)C(=O)NO)c1ccc(F)cc1` [Compound 168230, (S)-6-((4′-fluorobiphenyl-3-yl)methylamino)-2-((R)-2-(4-fluorophenyl)-2-methoxyethyl)-N-hydroxyhexanamide], the Ki was determined as 450 nM.
For `CO[C@H](C[C@H](CCCCNCc1cc2ccccc2s1)C(=O)NO)c1ccc(F)cc1` [Compound 168231, (S)-6-(benzo[b]thiophen-2-ylmethylamino)-2-((R)-2-(4-fluorophenyl)-2-methoxyethyl)-N-hydroxyhexanamide], the Ki was found to be 320 nM.

The values are drawn from patent US8119692B2 (priority 2007, dated 2012).
